The test system of one experiment is S. aureus MZ100. Put plainly: in vitro infection model on titanium pins, colony counts. The format is cell-based. The following applies: composition 5 μM + vancomycin 100 μM, two hours incubation. On the procedure: Acetone-sterilized titanium pins (1 mm diameter, 12 mm long) were first washed in PBS. These pins were then incubated in a solution (PBS) containing the respective composition (5 μM)+vancomycin (100 μM) for 15 minutes at room temperature, with intermittent inversion for coating. Each pin was then washed extensively in PBS and placed in 30 μL of S. aureus MZ100 cultured at 10^6 colony forming units (cfu) per mL, according to methods above. The coated pins were then inoculated in 30 mm lengths of 1.5 mm diameter silicone tubing, with closed ends. After incubation for two hours with shaking, the pin was placed in a new tube containing 1 mL PBS. After inverting several times, PBS was aspirated, and replaced with a fresh 1 mL of PBS. The pins were then sonicated at 20 kHz for four cycles of 15 seconds each. Supernatants (100 μL) and dilutions were plated on trypticase soy agar (TSA) plates, incubated for 24 hours at 37° C., and colonies were counted. An assay control included the same steps of the infection model, except that the pin is uncoated pin (i.e., without composition according to the presently disclosed subject matter bound thereto) (“Control”). As representative examples, compositions comprising the amino acid sequences of SEQ ID NOs: 125 and 126 were tested for antimicrobial activity using the in vitro infection model (see, Table 7, “A” & “B”, respectively).

A short description of experiment [1]: binding assay: biotinylated synthetic peptide on streptavidin plate, titrated with biotinylated glycopeptide antibiotic. On the procedure:
A typical binding assay for glycopeptide antibiotic was performed according to the following procedure. Briefly, synthetic peptides comprising an amino acid sequence to be characterized for binding were biotinylated to facilitate immobilization on streptavidin-coated 96-well plates. The microtiter plates were coated with streptavidin by adding 50 μl of a 10 μg/ml streptavidin solution in 0.1M NaHCO3, and incubating the plates for at least 3 hours. The plate wells were blocked by adding 150 μl of a 1% BSA solution in 0.1 NaHCO3 with incubation for at least 2 hours, and the plates were stored at 4° C. until needed. Before use, the streptavidin plates were washed extensively in buffer-T. Added per well was peptide (100 μl 0.1 μM peptide in buffer-T), and then incubated for 30 minutes at room temperature with shaking. 200 μl of 0.5 mM biotin in buffer-T was added to block the remaining streptavidin sites, and plates were incubated for 15 minutes at room temperature. Plates were then washed with buffer-T to remove the excess biotin and peptide. Serial dilutions of biotinylated glycopeptide antibiotic in buffer-T were added (100 μl) to each well, representing a range of concentrations between 100 pM and 100 μM. Plates were incubated for 30 minutes at room temperature with shaking prior to washing several times with buffer-T. Glycopeptide antibiotic was then detected by adding 100 μl of a diluted streptavidin-alkaline phosphatase conjugate to each well and incubated at room temperature for 30 minutes. Excess conjugate was removed by repeated washes with buffer-T, and the amount of alkaline phosphatase remaining in the well was detected using a pNPP (para-nitrophenylphosphate) colorimetric enzymatic assay. The relative amount of glycopeptide antibiotic captured by the peptides was determined by measuring the absorbance at 405 nm of the colored product of the alkaline phosphatase reaction. The EC50 was determined for each peptide relative to the binding affinity for the glycopeptide antibiotic used in the assay, as shown in Table 1 (with vancomycin as a representative glycopeptide antibiotic).
A typical binding assay for glycopeptide antibiotic was performed according to the following procedure. The concentrations of the alkaline-phosphatase linked variant peptides were normalized to equal levels based on the alkaline-phosphatase activity as determined in a kinetic assay with the alkaline-phosphatase specific chromogenic substrate p-nitrophenyl phosphate (p-NPP). A streptavidin coated microtiter plate was coated with biotinylated vancomycin. Serial dilutions of normalized alkaline-phosphatase linked peptides were allowed to bind to the immobilized vancomycin and detected by addition of the alkaline-phosphatase specific chromogenic substrate p-NPP. Relative affinity for peptide binding to the immobilized vancomycin was determined by measuring the absorbance at 405 nm of the colored product of the alkaline phosphatase reaction. […] EC50 values for the synthetic peptides binding to vancomycin were determined as described in Example 1 and are shown in Table 3. Preferred are peptides that bind to glycopeptide antibiotic with binding affinity of EC50 of less than or equal to about 1 μM, and more preferably, in the nanomolar range (e.g., <0.1 μM).

Experiment [2] in a line: binding assay for gentamycin, similar format as for vancomycin. The following applies: aminoglycoside antibiotic.
The subject of experiment [3] is binding between vancomycin and a peptide comprising SEQ ID NO:1. Kind of experiment: inhibition by Lys-D-Ala-D-Ala of binding between vancomycin and peptide SEQ ID NO:1. The procedure: As an example, illustrated is the inhibition by Lys-D-Ala-D-Ala of specific binding between vancomycin and a peptide comprising the amino acid sequence of SEQ ID NO:1. To the wells of a 96 well plate coated with streptavidin was added 100 μl of a 0.2 μM solution of biotinylated peptide in buffer-T. After incubation, the wells were blocked by adding 200 μl of a 0.5 mM solution of biotin in buffer-T. The plates were then washed three times with buffer-T. Serial dilutions of Lys-D-Ala-D-Ala were prepared, and added individually to the wells such that Lys-D-Ala-D-Ala ranged in a final concentration of from about 1 μM to about 200 μM (in a volume of 35 μl). Also added to each well was 35 μl of biotinylated vancomycin (20 nM final concentration), and the plate was incubated at 30 minutes for room temperature. The wells were then washed three times with buffer-T, followed by the addition of 100 μl of streptavidin-alkaline phosphatase conjugate (1 mg/ml diluted 1:500 in buffer-T). Following a 30 minute incubation, the wells were washed five times with buffer-T. Added to each well was 100 μl of pNPP, followed by colorimetric detection after 12 minutes at an absorbance of 405 nm.

For experiment [4], the target named is vancomycin. Kind of experiment: retention of BODIPY-FL vancomycin on titanium beads with the peptide composition, followed from 45 minutes to 100 hours.
Experiment [5] addresses vancomycin. Put plainly: titanium beads with 10 µM peptide composition and 200 µM vancomycin, washed, vancomycin eluted with HCl and measured by HPLC.

Like-named read-outs stand apart in the source and are kept apart here. *1 amine or outer side, *2 acyl side, *3 side chain or, on linkers, in order; H or OH if unused. Bridges are numbered along the chain shown (N, C = ends). Where no end group is shown, it is not given here. [ ]: non-standard residue; d: D form. The star is where a group is joined. (miniPEG)2 = linker of two miniPEG units, each HN-CH2CH2-O-CH2CH2-O-CH2-C(=O), O=C(COCCOCCN[*:1])NCCOCCOCC(=O)[*:2]; Myristoyl = CCCCCCCCCCCCCC(=O)*; Aun = NCCCCCCCCCCC(=O)O; Ahx = NCCCCCC(=O)O

As to “AUD-AUD-AUD-SSCLIDIYGVCHNFDAY-(miniPEG)2-HKKNNPKKKNKTRGSSK ([Aun][Aun][Aun]SSCLIDIYGVCHNFDAY[miniPEG][miniPEG]HKKNNPKKKNKTRGSSK; disulfide 6-14 (inferred)) [SEQ ID NO: 126]”, the “# of bacterial colonies (CFU)” value in the experiment with S. aureus MZ100 is recorded as less than 10 CFU.
The EC50 is the concentration giving half of the maximal effect. Regarding CLIDMYGVCHNFDGAYDS [compound 1], the EC50 in experiment [1] (synthetic peptides binding to vancomycin, read-out: EC50, binding to glycopeptide antibiotic) was less than 0.1 µM; in experiment [1] (synthetic peptides, biotinylated vancomycin, read-out: EC50 (μM) for vancomycin binding) it was 0.1 µM. Moreover, the “binding affinity for gentamycin” value in experiment [2] is given as “lacked significant binding affinity”.
On to Lys-D-Ala-D-Ala (Lys-[dA]-[dA]), for which the “inhibition of binding between vancomycin and peptide” value in experiment [3] (Lys-D-Ala-D-Ala between 100 μM to 200 μM) is recorded as approximately 100%. Further, in experiment [3] (biotinylated vancomycin 20 nM, read-out: concentration needed to inhibit about 50% of the binding between vancomycin and peptide), the IC50 is approximately 10000 nM.
Take “Myr-Ahx-SSCLIDIYGVCHNFDAY-(miniPEG)2-HKKNNPKKKNKTRGSSK ({Myristoyl-Ahx}-SSCLIDIYGVCHNFDAY[miniPEG][miniPEG]HKKNNPKKKNKTRGSSK; disulfide 3-11 (inferred)) [SEQ ID NO: 125]”: the “# of bacterial colonies (CFU)” value in the experiment on S. aureus MZ100 came to 100 CFU.

B1: peptide composition comprising SEQ ID NO: 120 (peptide)
peptide: H-SSSCLIDMYGVCHNFDGAYDSSRG[(miniPEG)2]SSHRTNHKKNNPKKKNKTRGSSGK-NH2
modifications: disulfide 4-12 (inferred)
As for B1, in the experiment with vancomycin [4], the percent of BODIPY-FL vancomycin remaining on the metal surface after 3 hours was found to be 50%. In the experiment with vancomycin [5], this molecule returned a Picomoles vancomycin/cm^2 (picomoles/cm^2) of 61.

The record behind these values is patent publication US20100098737A1, “METHODS AND COMPOSITIONS FOR DELIVERY OF GLYCOPEPTIDE ANTIBIOTICS TO MEDICAL DEVICE SURFACES” (priority 2008, published 2010).
